The subject of the series is female Balb/cJ mice. The series can be described thus: Mouse model of xenobiotic metabolism (irinotecan-induced diarrhea). The conditions noted are these: irinotecan 50 mg/kg IP once daily for 10 days.

Each structure is given as a SMILES string.

Protocol: On day one and everyday thereafter for 10 days, female Balb/cJ mice (The Jackson Laboratory, Farmington, Conn.) were administered irinotecan (50 mg/kg) (Selleckchem, Houston, Tex.) via intraperitoneal (IP) injection once daily for the length of the experiment. On day one and every day thereafter for 10 days, mice were also administered streptomycin (5 mg/ml) (Sigma-Aldrich, St. Louis, Mo.) ad libidum via their drinking water in order to kill proteobacteria in the mouse GI tract.
On day two, 0.1 ml of engineered bacteria in PBS at a concentration of 10^10 colony forming units per mL were administered to the mice once via oral gavage.
On days 3, 7, 8, 9, and 10, the presence of the bacteria in the mouse GI tract was confirmed by collecting fecal samples from the mice, and analyzing the fecal samples for the presence of engineered bacteria. The fecal samples were homogenized in PBS, and inoculated onto agar plates containing streptomycin (500 μg/ml). These agar plates inhibited the growth of other bacteria, and only allowed the engineered bacteria to grow. Colonies were quantified and tallied to determine the amount of bacteria that were alive in the mouse GI tract.
Diarrhea indicated whether the xenobiotic metabolism of the irinotecan caused GI toxicity.

In the case of `CCc1c2c(nc3ccc(OC(=O)N4CCC(N5CCCCC5)CC4)cc13)-c1cc3c(c(=O)n1C2)COC(=O)[C@]3(O)CC` [Irinotecan, irinotecan], the “Mice with diarrhea/total mice in test group” value (streptomycin in drinking water, bacteria once via oral gavage on day two, observed days 6 through 10) is recorded as 9/10. Further, the “GI toxicity / diarrhea from irinotecan, in words” value (with or without engineered bacteria) is listed as “Nine of the ten mice that did not receive engineered bacteria experienced GI toxicity”.

Source of the values: US20210093679A1, “[…] MICROBES AND USES THEREOF” (priority 2018, published 2021).
